# In paper doi:10.1101/2025.02.17.638454, “Synergistic RAS-MAPK and AKT Activation in MYC-Driven Tumors via Adjacent PVT1 Rearrangements” (bioRxiv, 2025):
# What was measured:
# Assay type in all cases: cell-based, human
# [1] = tested on: FFX; assay: Western blot of FFX in D458; settings: D458, siRNA vs si.Ctrl, anti-FFX antibody
# Experimental: For whole-cell lysate, the cell pellet was resuspended in RIPA buffer (Cell Signaling Technologies, Danvers, MA) supplemented with a protease inhibitor cocktail (Cell Signaling Technologies) and incubated on ice for 20 minutes. The lysate was then centrifuged at 14,000 revolutions/minute for 10 minutes at 4°C, and the supernatant was harvested. Protein concentration was quantified by BCA Protein Assay Kit (Thermo Fisher Scientific) as per kit protocol. Next, 20 μg of whole-cell lysate was electrophoresed on a 4%–20% gradient polyacrylamide gel with SDS (Bio-Rad, Hercules, CA) and electroblotted onto polyvinylidene difluoride membranes (Bio-Rad). Membranes were blocked in Tris-buffered saline with 5% nonfat milk and 0.1% Tween and probed with antibodies. Bound proteins were detected with horseradish-peroxidase–conjugated secondary antibodies (Cell Signaling Technologies) and SuperSignal West Femto (Thermo Fisher Scientific). […]
# [2] = tested on: HALLMARK_MYC_TARGETS; assay: GSEA MYC targets, COLO320DM; settings: si.CircPVT1 vs si.Ctrl
# Text: (§1) RNAseq processing: Raw reads were mapped to the hg19 human reference genome using the STAR aligner (v.2.5.0a) 66. PCR-duplicated reads and low mapping quality reads (MQ score below 20) were removed using Picard tools and SAMtools, respectively. Aligned reads were counted using htseq-count (v.0.6.1p1) 69 and normalized according to size factors method from DESeq2 70. We used fold change ≥2 and FDR <0.05 as the determination of differentially expressed genes (DEG). […]
# Supplementary Figure 9: Gene set enrichment analysis scores (GSEA) analysis for MYC targets genes in COLODM320 (A,B) and SK-PN-DW (C,D) treated with si.CircPVT 1. si.Ctrl was used as control . n=3, for each treatment condition .
# (also on this page, place not known: Enrichment Score Enrichment Score si.CircPVT1. control. condition. Enrichment Score Enrichment Score .CC-BY licenseavailable preprintthis https://doi.org/10.1101/2025.02.17.638454doi:) […]
# [3] = tested on: HALLMARK_MTORC1_SIGNALING; assay: GSEA MTORC1 signaling, COLO320DM; settings: si.CircPVT1 vs si.Ctrl, n=3, Padj = 0.0188
# Text: as §1, with “(DEG). Statistical analysis and plots were performed inside R environment version 3.1.0. upload files)” for “(DEG).”
# bioRxiv preprint doi: https://doi.org/10.1101/2025.02.17.638454; this version posted February 22, 2025. The copyright holder for this preprint (which was not certified by peer review) is the author/funder, who has granted bioRxiv a license to display the preprint in perpetuity. It is made available under a CC-BY 4.0 International license . […]
# Supplementary Figure 11: Gene set enrichment analysis scores (GSEA) analysis of genes involved in MTORC 1 signaling in COLO320DM (A) and SK-PN-DW (B) treated with si.CircPVT 1. si.Ctrl was used as control. n=3, for each treatment condition .
# (also on this page, place not known: SK-PN-DWB MTORC1 si.CircPVT1. condition. Enrichment Score Enrichment Score .CC-BY licenseavailable preprintthis https://doi.org/10.1101/2025.02.17.638454doi:) […]
substance,measurement,setting,value
"si.CircPVT1: siRNA targeting the junction sequence of CircPVT1, 5’-UGGGCUUGAGGCCUGAUCUUU-3’ (other strand not given here)",FFX protein expression,[1],significantly reduced the protein
same,"NES, HALLMARK_MYC_TARGETS_V1","[2]; n=3, Padj = 0.009",-1.990
same,"NES, HALLMARK_MYC_TARGETS_V2","[2]; n=3, Padj = 0.017",-1.733
same,"NES, HALLMARK_MTORC1_SIGNALING",[3],-1.506
